# What was measured:
# Apo-E KO mice [1] = assay: Assessment of atherosclerosis: lesion area in the aortic sinus; format: in vivo, mouse
# IL-10 = assay: RT-PCR cytokine expression in the aorta: IL-10; format: in vivo, mouse; conditions: oral 1 mg/mouse 5 times every other day, 8 weeks after final administration
# Experimental: (§1) The effect of ALLE, CI-201, its corresponding acetal derivatives Et-acetal and Me-acetal (Compounds IIa and IIb, FIG. 10) and oxLDL on cytokine expression in the target organ—the aorta—was evaluated using RT-PCR as described hereinabove. […] Oral administrations took place 5 times every other day.
# IFN-γ = assay: RT-PCR cytokine expression in the aorta: IFN-γ; format: in vivo; conditions: oral 1 mg/mouse 5 times every other day, 8 weeks after final administration
# Experimental: as §1
# IL-12 = assay: RT-PCR cytokine expression in the aorta: IL-12; format: in vivo; conditions: oral 1 mg/mouse 5 times every other day, 8 weeks after final administration
# Experimental: as §1
# Apo-E KO mice [2] = assay: Aorta lesion (% from total area); format: in vivo; conditions: oral 1 mg/mouse, 5 feedings every other day every 4 weeks over 12 weeks; 24.5 week old mice; End
# Excerpt: Assessment of Atherosclerosis: Quantification of atherosclerotic fatty streak lesions was done by calculating the lesion size in the aortic sinus as previously described (Paigen et al. Quantitative assessment of atherosclerotic lesions in mice. Atherosclerosis 1987; 68: […]) and by calculating the lesion size in the aorta. Briefly, after perfusion with saline Tris EDTA, the heart and the aorta were removed from the animals and the peripheral fat cleaned carefully. The upper section of the heart was embedded in OCT medium (10.24% w/w polyvinyl alcohol; 4.26% w/w polyethylene glycol; 85.50 w/w nonreactive ingredients) and frozen. […] Sections were evaluated for fatty streak lesions after staining with oil-red O. Lesion areas per section were scored on a grid (Rubin et al. Inhibition of early atherogenesis in transgenic mice by human apoplipoprotein A-I. Nature 1991; 353: 265-267) by an observer counting unidentified, numbered specimens. […]
# Their effect on the triglyceride and cholesterol fractions of VLDL was also monitored by FPLC. […]
# (§2) Mice were bled prior to feeding (Time 0), after the 2nd set of feeding and at the conclusion of the experiment (End) for determination of lipid profile, lipid fractionation and plasma collection. Atherosclerosis was assessed as described above in the aorta sinus and aorta. […] Weight was recorded every 2 weeks throughout the experiment. […]
# [3] = FPLC analysis of triglyceride and cholesterol content of VLDL; format: in vivo; conditions: oral 1 mg/mouse, 3 sets over 12 weeks; measured 9 weeks from t=0; FPLC of pooled blood
# Experimental: (§3) 24.5 weeks old Apo-E KO mice were fed 1 mg/mouse L-ALLE (triangle) (n=11), D-ALLE (inverted triangle) (n=9) or POVPC (square) (n=10) every other day for 5 days, at 4 weeks intervals over a 12 weeks period. Control mice were fed an identical volume (0.2 ml) and regimen of PBS (circle) (n=10). Triglyceride content (Tg, mg/ml) was measured 9 weeks from t=0, by enzymatic colorimetric method in the VLDL fractions following separation of pooled blood samples on FPLC, as described in the materials and methods section that follows.
# as §3, with “Cholesterol” for “Triglyceride”, “(Cholesterol,” for “(Tg,”
# FPLC Analysis: Fast Protein Liquid Chromatography analysis of cholesterol and lipid content of lipoproteins was performed using Superose 6 HR 10/30 column (Amersham Pharmacia Biotech, Inc, Peapack, N.J.) on a FPLC system (Pharmacia LKB. FRAC-200, Pharmacia, Peapack, N.J.). A minimum sample volume of 300 μl (blood pooled from 3 mice was diluted 1:2 and filtered before loading) was required in the sampling vial for the automatic sampler to completely fill the 200 μl sample loop. Fractions 10-40 were collected, each fraction contained 0.5 ml. A 250 μl sample from each fraction was mixed with freshly prepared cholesterol reagent or triglyceride reagent respectively, incubated for 5 minutes at 37° C. and assayed spectrophotometrically at 500 nm.
# Their effect on the triglyceride and cholesterol fractions of VLDL was also monitored by FPLC. […] male, 24.5 week old Apo-E KO mice were divided into 5 groups. In group A (n=11) mice were fed with 1 mg/mouse L-ALLE suspended in 0.2 ml PBS, administered by gavage, as described above, every other day for 5 days. In group B (n=9) mice were fed with 1 mg/mouse D-ALLE suspended in 0.2 ml PBS, administered per os, as described above, every other day for 5 days. In group C (n=10) mice were fed with 1 mg/mouse POVPC suspended in 0.2 ml PBS, administered by gavage, as described above, every other day for 5 days. […]
# as §2
# IL12p40 = assay: p40 production by activated BMDC's (ELISA); format: cell-based, mouse; conditions: BMDC's, 1 h pre-incubation, PGN 10 μg/ml, 24 hours; preliminary results
compound,measurement,setting,value
"2,5′-Aldehyde Lecithin Ether [ALLE]",protection from atherogenesis,Apo-E KO mice [1]; ALLE by both oral (1 mg/mouse) and nasal (10 μg/mouse) administrations,approximately 50%
same,protection from atherosclerotic lesion formation,Apo-E KO mice [1]; i.p. immunization with ALLE (mixture of D- and L-),> 50%
same,Lesion size,"Apo-E KO mice [1]; i.p. immunization x4 every 2 weeks (ALLE 150 μg/mouse coupled to PPD; PPD alone), 4.5 weeks post 4th immunization",101000 ± 8276 μm^2
same,Lesion size,"Apo-E KO mice [1]; nasal 10 μg/mouse L-ALLE every other day for 3 days, 8 weeks after last exposure",82708 ± 10986 μm^2
same,Lesion size,"Apo-E KO mice [1]; oral 10 μg/mouse L-ALLE+D-ALLE every other day for 5 days, 8 weeks after last feeding",103889 ± 14320 μm^2
same,Lesion size,"Apo-E KO mice [1]; oral 1 mg/mouse L-ALLE every other day for 5 days, 8 weeks after last feeding",76944 ± 17072 μm^2
same,Lesion size,"Apo-E KO mice [1]; oral 1 mg/mouse L-ALLE+D-ALLE every other day for 5 days, 8 weeks after last feeding",85278 ± 11633 μm^2
same,"atherogenesis in Apo-E KO mice, oral administration (summary of earlier examples)",Apo-E KO mice [1]; oral administration,substantially inhibited atherogenesis
same,protection from atherosclerosis,"Apo-E KO mice [1]; oral administration of ALLE, 10 μg-1 mg/mouse",> 50%
same,IL-10 expression in the aorta versus PBS,IL-10,elevated levels
same,IFN-γ expression in the aorta versus PBS,IFN-γ,Reduced expression levels
same,IL-12 expression in the aorta versus PBS,IL-12,reduced levels
"C=CCCCCO[C@H](COCCCCCCCCCCCCCCCC)COP(=O)([O-])OCC[N+](C)(C)C [Compound V, 1-Hexadecyl-2-(5′-hexenyl)-sn-glycero-3-phosphocholine]",atherogenesis progression,"Apo-E KO mice [1]; oral 0.1 μg/dose, 3 monthly sets of 5 administrations",did not effect atherogenesis progression
same,Sinus Lesion,"Apo-E KO mice [1]; oral 0.1 μg/dose, 3 monthly sets of 5 administrations, 12 weeks, 23-26 weeks old mice, no statistical difference to PBS",238000 ± 32200 µm²
same,Sinus Lesion,"Apo-E KO mice [1]; oral 0.2 mg/mouse every other day for 5 days, 8 weeks after last administration",334622 ± 26100 μm^2
same,Sinus Lesion,"Apo-E KO mice [1]; oral 1 mg/mouse every other day for 5 days, 8 weeks after last administration",361166 ± 24068 μm^2
same,Sinus Lesion,"Apo-E KO mice [1]; oral 5 mg/mouse every other day for 5 days, 8 weeks after last administration",307291 ± 22689 μm^2
same,effect on atherogenesis,Apo-E KO mice [1]; oral 0.2-5 mg/mouse every other day for 5 days,no effect
"CCCCCCCCCCCCCCCCOC[C@H](COP(=O)([O-])OCC[N+](C)(C)C)OCCCCC=O [D-ALLE, 1-hexadecyl-2-(5′-oxo-pentanyl)-sn-glycero-3-phosphocholine]",Sinus Lesion,"Apo-E KO mice [1]; oral 1 mg/mouse, 5 feedings every other day every 4 weeks over 12 weeks, 24.5 week old mice, End (12 weeks after first feeding)",245938 ± 20474 μm^2
same,protection from atheromatous progression,"Apo-E KO mice [1]; oral 1 mg/mouse, late stage, compared with lesion scores at 24.5 weeks",nearly complete protection
same,Aorta lesion (% from total area),Apo-E KO mice [2],4.5 % from total area
same,cholesterol content of VLDL,[3],reduction
same,triglyceride content of VLDL,[3],reduction
"CCCCCCCCCCCCCCCCOC[C@H](COP(=O)([O-])OCC[N+](C)(C)C)OC(=O)CCC [PAF2C, 1-O-Hexadecyl-2-O-Butyroyl-sn-Glycero-3-Phosphocholine, reference compound]","p40 production / p40 inhibition, structure-function analysis",IL12p40,efficient in p40 inhibition
"CCCCCCCCCCCCCCCCOC[C@H](COP(=O)([O-])OCC[N+](C)(C)C)OC(C)=O [PAF, 1-O-Hexadecyl-2-Acetoyl-sn-Glycero-3-Phosphocholine, reference compound]","p40 production / p40 inhibition, structure-function analysis",IL12p40,efficient in p40 inhibition
CCCCCCCCCCCCCCCCOCC(COP(=O)([O-])OCC[N+](C)(C)C)OCCCCC(=O)OC (stereo not shown) [methyl ester of CI-201],"p40 production / p40 inhibition, structure-function analysis",IL12p40,restored p40 production
CCCCCCCCCCCCCCCCOCC(CO)OCCCCC(=O)O (stereo not shown) [non phosphorylated metabolite of CI-201],"p40 production / p40 inhibition, structure-function analysis",IL12p40,restored p40 production
"CCCCCCCCCCCCCCCCOC[C@H](COP(=O)(O)OCCN)OCCCCC(=O)O [phosphoethanol amine, 1-O-Hexadecyl-2-(4′-carboxybutyl)-sn-Glycero-3-Phosphoethanolamine]","p40 production / p40 inhibition, structure-function analysis",IL12p40,did not alter the molecule's p40 inhibitory effect

# Source: patent US8501715B2, “Oxidized lipids and uses thereof in the treatment of inflammatory diseases and disorders” (Vascular Biogenics Ltd., priority 2003, dated 2013)
